Measurements: US20140329858A1, “Cyclic Urea Derivatives As Androgen Receptor Antagonists” (priority 2011, published 2014)

Test system: Vcap cells
Assay: Dihydrotestosterone (DHT) mediated XTT cell proliferation assay for screening AR antagonists using Vcap cells
Assay type: cell-based
Conditions: Homo sapiens, 240 h, in the presence of 0.2 nM DHT, XTT readout on Day 10, IC50 curves from 8 concentrations
Method in brief: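 VCaP cells, starved 5 days in phenol red-free DMEM with 8% charcoal-stripped serum, were plated and treated on Day 4 with compound (0.1 nM-30 μM, 8 concentrations) plus 0.2 nM DHT, redosed Day 7. On Day 10 viability was read by XTT at 465 nm; IC50 from sigmoidal dose-response fit.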

Row | SMILES | IC50 [nM]
1 | N#Cc1ccc(N2C(=O)N(c3ccc(C(N)=O)c(F)c3)[C@H]3CCCC[C@@H]32)cc1C(F)(F)F [Example 31, 4-((3aS,7aS)-3-(4-cyano-3-(trifluoromethyl)phenyl)-2-oxooctahydro-1H-benzo[d]imidazol-1-yl)-2-fluorobenzamide] | 37.2
2 | N#Cc1ccc(N2C(=O)N(c3ccc(C(=O)NCCO)c(F)c3)[C@H]3CCCC[C@@H]32)cc1C(F)(F)F [Example 33, 4-((3aS,7aS)-3-(4-cyano-3-(trifluoromethyl)phenyl)-2-oxooctahydro-1H-benzo[d]imidazol-1-yl)-2-fluoro-N-(2-hydroxyethyl)benzamide] | 43.6
3 | N#Cc1ccc(N2C(=O)N(c3ccc(C(=O)N[C@@H]4CCOC4)c(F)c3)[C@H]3CCCC[C@@H]32)cc1C(F)(F)F [Example 36] | 203
4 | N#Cc1ccc(N2C(=O)N(c3ccc(C(=O)NC(CO)CO)c(F)c3)[C@H]3CCCC[C@@H]32)cc1C(F)(F)F [Example 37, 4-((3aS,7aS)-3-(4-cyano-3-(trifluoromethyl)phenyl)-2-oxooctahydro-1H-benzo[d]imidazol-1-yl)-N-(1,3-dihydroxypropan-2-yl)-2-fluorobenzamide] | 6080
5 | CNC(=S)c1ccc(N2C(=O)N(c3ccc(C#N)c(C(F)(F)F)c3)[C@H]3CCCC[C@@H]32)cc1F [Example 41, 4-((3aS,7 aS)-3-(4-cyano-3-(trifluoromethyl)phenyl)-2-oxooctahydro-1H-benzo[d]imidazol-1-yl)-2-fluoro-N-methylbenzothioamide] | 134
6 | N#Cc1ccc(N2C(=O)N(c3cc(Cl)cc(Cl)c3)[C@H]3CCCC[C@@H]32)cc1C(F)(F)F [Example 44, 4-((3aS,7aS)-3-(3,5-dichlorophenyl)-2-oxooctahydro-1H-benzo[d]imidazol-1-yl)-2-(trifluoromethyl)benzonitrile] | 96.4
7 | CC(=O)c1ccc(N2C(=O)N(c3ccc(C#N)c(C(F)(F)F)c3)[C@H]3CCCC[C@@H]32)cc1F [Example 45, 4-((3aS,7aS)-3-(4-acetyl-3-fluorophenyl)-2-oxooctahydro-1H-benzo[d]imidazol-1-yl)-2-(trifluoromethyl)benzonitrile] | 1020
8 | N#Cc1ccc(N2C(=O)N(c3ccc(CO)c(F)c3)[C@H]3CCCC[C@@H]32)cc1C(F)(F)F [Example 46, 4-((3aS,7aS)-3-(3-fluoro-4-(hydroxymethyl)phenyl)-2-oxooctahydro-1H-benzo[d]imidazol-1-yl)-2-(trifluoromethyl)benzonitrile] | 660
9 | CNC(=O)c1ccc(N2C(=O)N(c3ccc(C#N)c(C(F)(F)F)c3)[C@H]3CCCC[C@@H]32)cn1 [Example 54, 5-((3aS,7aS)-3-(4-cyano-3-(trifluoromethyl)phenyl)-2-oxooctahydro-1H-benzo[d]imidazol-1-yl)-N-methylpicolinamide] | 245
10 | N#Cc1ccc(N2C(=O)N(c3ccc(C(N)=O)nc3)[C@H]3CCCC[C@@H]32)cc1C(F)(F)F [Example 55, 5-((3aS,7aS)-3-(4-cyano-3-(trifluoromethyl)phenyl)-2-oxooctahydro-1H-benzo[d]imidazol-1-yl)picolinamide] | 174
11 | CNC(=O)c1cc(N2C(=O)N(c3ccc(C#N)c(C(F)(F)F)c3)[C@H]3CCCC[C@@H]32)ccn1 [Example 56, 4-((3aS,7aS)-3-(4-cyano-3-(trifluoromethyl)phenyl)-2-oxooctahydro-1H-benzo[d]imidazol-1-yl)-N-methylpicolinamide] | 1820
12 | N#Cc1ccc(N2C(=O)N(c3ccnc(C(N)=O)c3)[C@H]3CCCC[C@@H]32)cc1C(F)(F)F [Example 57, 4-((3aS,7aS)-3-(4-cyano-3-(trifluoromethyl)phenyl)-2-oxooctahydro-1H-benzo[d]imidazol-1-yl)picolinamide] | 265
13 | N#Cc1ccc(N2C(=O)N(c3ccc4c(c3)CCO4)[C@H]3CCCC[C@@H]32)cc1C(F)(F)F [Example 58, 4-((3aS,7aS)-3-(2,3-dihydrobenzofuran-5-yl)-2-oxooctahydro-1H-benzo[d]imidazol-1-yl)-2-(trifluoromethyl)benzonitrile] | 547
14 | N#Cc1ccc(N2C(=O)N(c3ccc(Cl)cc3)[C@H]3CCCC[C@@H]32)cc1C(F)(F)F [Example 61, 4-((3aS,7aS)-3-(4-chlorophenyl)-2-oxooctahydro-1H-benzo[d]imidazol-1-yl)-2-(trifluoromethyl)benzonitrile] | 348
15 | N#Cc1ccc(N2C(=O)N(c3cnccc3C3CC3)[C@H]3CCCC[C@@H]32)cc1C(F)(F)F [Example 62, 4-((3aS,7aS)-3-(4-cyclopropylpyridin-3-yl)-2-oxooctahydro-1H-benzo[d]imidazol-1-yl)-2-(trifluoromethyl)benzonitrile] | 2160
16 | Cc1ccncc1N1C(=O)N(c2ccc(C#N)c(C(F)(F)F)c2)[C@H]2CCCC[C@@H]21 [Example 63, 4-((3aS,7aS)-3-(4-methylpyridin-3-yl)-2-oxooctahydro-1H-benzo[d]imidazol-1-yl)-2-(trifluoromethyl)benzonitrile] | 2290
17 | N#Cc1ccc(N2C(=O)N(c3ccc(C(N)=O)cc3)[C@H]3CCCC[C@@H]32)cc1C(F)(F)F [Example 66, 4-((3aS,7aS)-3-(4-cyano-3-(trifluoromethyl)phenyl)-2-oxooctahydro-1H-benzo[d]imidazol-1-yl)benzamide] | 261
18 | Cc1cc(N2C(=O)N(c3ccc(C#N)c(C(F)(F)F)c3)[C@H]3CCCC[C@@H]32)ccc1C(=O)O [Example 69, 4-((3aS,7aS)-3-(4-cyano-3-(trifluoromethyl)phenyl)-2-oxooctahydro-1H-benzo[d]imidazol-1-yl)-2-methylbenzoic acid] | > 10000
19 | Cc1cc(N2C(=O)N(c3ccc(C#N)c(C(F)(F)F)c3)[C@H]3CCCC[C@@H]32)ccc1C(N)=O [Example 70, 4-((3aS,7aS)-3-(4-cyano-3-(trifluoromethyl)phenyl)-2-oxooctahydro-1H-benzo[d]imidazol-1-yl)-2-methylbenzamide] | 733
20 | CN1C(=O)N(c2ccc(C#N)c(C(F)(F)F)c2)[C@@H]2CCC(c3ccccc3)C[C@H]21 (stereo partly drawn) [Example 90, Trans-4-(3-methyl-2-oxo-5-phenyloctahydro-1H-benzo[d]imidazol-1-yl)-2-(trifluoromethyl)benzonitrile] | 372
